Laboratory results from publication PMC10794144, “A novel antibiotic class targeting the lipopolysaccharide transporter” (Nature, 2024).
Like-named read-outs stand apart in the source and are kept apart here.

What was measured:
Prostaglandin F receptor = molecular target: T1, Prostaglandin F receptor (Homo sapiens, UniProt P43088); assay: Off-target screening (CEREP); assay type: binding; conditions: read-out: percent inhibition
T1 construct: purchased Eurofins CEREP SA
Experimental: (§1) Supplementary Table 1 │ Off-target activity screening f or MCP compou nds […]
(§2) The assays given in the table above were conducted at Eurofins CEREP S A (Celle-Lévescault, France) and were run as single point measurements in duplicates in the presence of 10 µ M of the test compound and reported as percent inhibition of the radioligand signal or control enzymatic activity. n.d., not

Estrogen receptor alpha = molecular target: T2, Estrogen receptor alpha (Homo sapiens, UniProt P03372); assay: Off-target screening (CEREP); assay type: binding; conditions: read-out: percent inhibition
T2 construct: purchased Eurofins CEREP SA
T2 sequence (P03372 whole entry): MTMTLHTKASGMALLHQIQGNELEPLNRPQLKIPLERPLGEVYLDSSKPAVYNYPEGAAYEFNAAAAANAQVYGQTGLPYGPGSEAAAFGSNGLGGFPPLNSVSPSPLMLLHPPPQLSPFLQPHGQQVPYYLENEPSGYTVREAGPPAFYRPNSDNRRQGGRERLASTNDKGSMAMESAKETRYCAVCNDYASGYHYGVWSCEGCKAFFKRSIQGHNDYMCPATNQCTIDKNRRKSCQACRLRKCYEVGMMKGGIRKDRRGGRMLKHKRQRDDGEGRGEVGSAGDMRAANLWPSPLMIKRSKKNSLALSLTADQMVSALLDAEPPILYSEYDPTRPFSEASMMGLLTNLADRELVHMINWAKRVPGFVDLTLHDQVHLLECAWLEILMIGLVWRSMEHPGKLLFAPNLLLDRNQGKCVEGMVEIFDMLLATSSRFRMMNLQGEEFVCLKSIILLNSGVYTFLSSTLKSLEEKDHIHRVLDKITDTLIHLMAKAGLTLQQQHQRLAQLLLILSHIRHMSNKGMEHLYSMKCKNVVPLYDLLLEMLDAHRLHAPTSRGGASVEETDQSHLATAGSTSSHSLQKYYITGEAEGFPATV
Experimental: as §1, §2

Histamine H2 receptor = molecular target: T3, Histamine H2 receptor (Homo sapiens, UniProt P25021); assay: Off-target screening (CEREP); assay type: binding; conditions: read-out: percent inhibition
T3 construct: purchased Eurofins CEREP SA
T3 sequence (P25021 whole entry): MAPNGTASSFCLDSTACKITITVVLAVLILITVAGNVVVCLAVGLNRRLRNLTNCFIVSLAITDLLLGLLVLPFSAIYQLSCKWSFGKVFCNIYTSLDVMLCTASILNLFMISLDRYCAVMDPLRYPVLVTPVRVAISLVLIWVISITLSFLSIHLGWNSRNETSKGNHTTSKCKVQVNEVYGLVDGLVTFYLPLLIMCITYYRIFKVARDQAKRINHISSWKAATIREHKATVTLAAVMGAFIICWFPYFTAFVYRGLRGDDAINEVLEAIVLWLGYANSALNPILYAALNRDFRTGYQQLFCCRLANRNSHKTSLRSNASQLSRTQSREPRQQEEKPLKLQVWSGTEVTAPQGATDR
Experimental: as §1, §2

5HT3 = molecular target: T4, 5HT3 (Homo sapiens, UniProt P46098); assay: Off-target screening (CEREP); assay type: binding; conditions: read-out: percent inhibition
T4 construct: purchased Eurofins CEREP SA
T4 sequence (P46098 24-478): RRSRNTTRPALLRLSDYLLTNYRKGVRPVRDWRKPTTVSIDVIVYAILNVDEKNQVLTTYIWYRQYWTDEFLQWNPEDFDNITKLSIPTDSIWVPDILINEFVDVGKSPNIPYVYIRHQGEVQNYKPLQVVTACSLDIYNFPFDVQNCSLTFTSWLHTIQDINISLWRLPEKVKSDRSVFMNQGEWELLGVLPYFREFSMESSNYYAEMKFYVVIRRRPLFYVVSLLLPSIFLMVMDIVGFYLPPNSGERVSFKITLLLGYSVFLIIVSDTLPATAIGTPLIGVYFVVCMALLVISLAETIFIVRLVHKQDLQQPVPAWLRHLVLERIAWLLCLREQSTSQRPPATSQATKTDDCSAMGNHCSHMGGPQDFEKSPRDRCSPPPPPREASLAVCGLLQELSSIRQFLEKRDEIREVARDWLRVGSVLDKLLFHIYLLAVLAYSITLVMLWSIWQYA
Experimental: as §1, §2

5HT2B = molecular target: T5, 5HT2B (Homo sapiens, UniProt P41595); assay: Off-target screening (CEREP); assay type: binding; conditions: read-out: percent inhibition
T5 construct: purchased Eurofins CEREP SA
T5 sequence (P41595 whole entry): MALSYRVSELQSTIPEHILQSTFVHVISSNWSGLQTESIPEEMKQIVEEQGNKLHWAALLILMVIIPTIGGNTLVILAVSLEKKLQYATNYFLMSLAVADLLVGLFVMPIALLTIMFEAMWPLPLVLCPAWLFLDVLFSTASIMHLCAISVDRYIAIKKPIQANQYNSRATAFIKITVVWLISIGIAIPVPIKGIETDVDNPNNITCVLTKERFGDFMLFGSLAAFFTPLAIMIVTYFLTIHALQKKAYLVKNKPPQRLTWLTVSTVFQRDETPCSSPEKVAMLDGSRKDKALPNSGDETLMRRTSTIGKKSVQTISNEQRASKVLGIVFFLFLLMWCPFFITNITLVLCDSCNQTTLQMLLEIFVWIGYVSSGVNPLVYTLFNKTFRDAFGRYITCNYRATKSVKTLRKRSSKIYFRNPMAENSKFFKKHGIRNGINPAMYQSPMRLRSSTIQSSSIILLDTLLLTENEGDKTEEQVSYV
Experimental: as §1, §2

[1] = molecular target: Glycine receptor, strychnine insensitive (Rattus norvegicus, UniProt P35439); assay: Off-target screening (CEREP); assay type: binding; conditions: read-out: percent inhibition
Sequence of Glycine receptor, strychnine insensitive (P35439 394-800): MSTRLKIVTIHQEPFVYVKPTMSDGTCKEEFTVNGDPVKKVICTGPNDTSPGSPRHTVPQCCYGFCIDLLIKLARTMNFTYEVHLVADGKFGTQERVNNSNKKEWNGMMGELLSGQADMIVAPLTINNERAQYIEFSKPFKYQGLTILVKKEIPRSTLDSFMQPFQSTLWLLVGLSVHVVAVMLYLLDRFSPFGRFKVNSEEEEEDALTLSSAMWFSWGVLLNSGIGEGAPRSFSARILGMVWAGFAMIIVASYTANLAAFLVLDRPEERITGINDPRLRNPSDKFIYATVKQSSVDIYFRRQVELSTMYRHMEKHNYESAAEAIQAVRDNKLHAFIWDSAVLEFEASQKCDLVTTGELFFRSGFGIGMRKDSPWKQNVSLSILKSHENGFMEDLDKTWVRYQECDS
Experimental: as §1, §2

Dopamine D2 receptor = molecular target: T6, Dopamine D2 receptor (Homo sapiens, UniProt P14416); assay: Off-target screening (CEREP); assay type: binding; conditions: read-out: percent inhibition
T6 construct: purchased Eurofins CEREP SA
T6 sequence (P14416 whole entry): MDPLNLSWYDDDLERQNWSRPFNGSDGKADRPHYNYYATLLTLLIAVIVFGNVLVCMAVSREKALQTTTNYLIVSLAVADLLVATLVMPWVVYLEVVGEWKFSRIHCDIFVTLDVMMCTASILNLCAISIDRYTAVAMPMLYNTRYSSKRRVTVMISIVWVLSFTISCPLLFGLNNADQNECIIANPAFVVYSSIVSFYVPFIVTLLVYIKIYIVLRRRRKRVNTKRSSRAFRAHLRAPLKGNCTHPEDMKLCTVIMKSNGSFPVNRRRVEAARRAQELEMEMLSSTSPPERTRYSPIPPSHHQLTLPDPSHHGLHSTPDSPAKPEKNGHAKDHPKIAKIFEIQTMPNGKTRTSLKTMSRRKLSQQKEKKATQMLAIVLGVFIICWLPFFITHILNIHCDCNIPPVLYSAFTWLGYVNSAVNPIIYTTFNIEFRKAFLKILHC
Experimental: as §1, §2

PPAR gamma = molecular target: T7, PPAR gamma (Homo sapiens, UniProt P37231); assay: Off-target screening (CEREP); assay type: binding; conditions: read-out: percent inhibition
T7 construct: purchased Eurofins CEREP SA
T7 sequence (P37231 1-505): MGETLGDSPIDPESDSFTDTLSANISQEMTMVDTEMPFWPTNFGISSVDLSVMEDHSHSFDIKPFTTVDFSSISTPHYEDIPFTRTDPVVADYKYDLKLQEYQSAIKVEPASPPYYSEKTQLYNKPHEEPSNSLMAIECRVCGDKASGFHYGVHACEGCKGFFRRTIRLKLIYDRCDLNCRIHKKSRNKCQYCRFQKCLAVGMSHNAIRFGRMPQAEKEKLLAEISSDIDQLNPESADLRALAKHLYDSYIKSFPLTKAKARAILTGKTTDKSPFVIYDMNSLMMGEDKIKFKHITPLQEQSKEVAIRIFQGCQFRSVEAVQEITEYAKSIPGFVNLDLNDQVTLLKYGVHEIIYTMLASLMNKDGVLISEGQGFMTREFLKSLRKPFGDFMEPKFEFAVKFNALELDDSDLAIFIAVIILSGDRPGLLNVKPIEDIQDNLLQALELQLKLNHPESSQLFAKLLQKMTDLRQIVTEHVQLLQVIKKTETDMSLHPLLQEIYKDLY
Experimental: as §1, §2

Androgen receptor = molecular target: T8, Androgen receptor (Homo sapiens, UniProt P10275); assay: Off-target screening (CEREP); assay type: binding; conditions: read-out: percent inhibition
T8 construct: purchased Eurofins CEREP SA
T8 sequence (P10275 1-920): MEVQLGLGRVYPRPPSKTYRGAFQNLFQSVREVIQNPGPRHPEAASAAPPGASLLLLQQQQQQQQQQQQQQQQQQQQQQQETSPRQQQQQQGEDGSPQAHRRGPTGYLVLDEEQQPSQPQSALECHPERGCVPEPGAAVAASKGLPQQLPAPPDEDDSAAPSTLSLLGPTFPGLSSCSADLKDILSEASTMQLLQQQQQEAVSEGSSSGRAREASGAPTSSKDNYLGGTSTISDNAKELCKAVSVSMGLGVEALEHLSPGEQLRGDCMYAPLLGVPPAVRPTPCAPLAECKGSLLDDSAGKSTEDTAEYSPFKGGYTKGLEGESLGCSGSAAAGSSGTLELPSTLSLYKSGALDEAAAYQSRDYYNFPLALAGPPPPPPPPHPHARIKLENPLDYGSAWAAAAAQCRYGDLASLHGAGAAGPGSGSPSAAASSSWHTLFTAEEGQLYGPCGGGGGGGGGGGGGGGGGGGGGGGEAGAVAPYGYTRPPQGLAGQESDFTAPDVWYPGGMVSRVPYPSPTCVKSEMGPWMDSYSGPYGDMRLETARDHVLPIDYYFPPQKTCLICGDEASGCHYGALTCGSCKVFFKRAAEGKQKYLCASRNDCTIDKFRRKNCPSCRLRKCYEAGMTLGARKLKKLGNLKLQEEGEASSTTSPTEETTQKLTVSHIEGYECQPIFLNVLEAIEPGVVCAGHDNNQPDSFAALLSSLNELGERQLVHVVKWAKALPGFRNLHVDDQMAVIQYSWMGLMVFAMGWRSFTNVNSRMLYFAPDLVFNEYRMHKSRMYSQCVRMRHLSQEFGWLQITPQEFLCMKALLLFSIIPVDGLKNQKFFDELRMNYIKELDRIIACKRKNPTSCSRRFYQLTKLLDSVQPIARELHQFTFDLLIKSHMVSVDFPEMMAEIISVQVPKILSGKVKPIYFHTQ
Experimental: as §1, §2

CYP3A4 = CYP3A4 (Homo sapiens, UniProt P08684); assay: CYP inhibition; assay type: in vitro ADME
Sequence of CYP3A4 (P08684 whole entry): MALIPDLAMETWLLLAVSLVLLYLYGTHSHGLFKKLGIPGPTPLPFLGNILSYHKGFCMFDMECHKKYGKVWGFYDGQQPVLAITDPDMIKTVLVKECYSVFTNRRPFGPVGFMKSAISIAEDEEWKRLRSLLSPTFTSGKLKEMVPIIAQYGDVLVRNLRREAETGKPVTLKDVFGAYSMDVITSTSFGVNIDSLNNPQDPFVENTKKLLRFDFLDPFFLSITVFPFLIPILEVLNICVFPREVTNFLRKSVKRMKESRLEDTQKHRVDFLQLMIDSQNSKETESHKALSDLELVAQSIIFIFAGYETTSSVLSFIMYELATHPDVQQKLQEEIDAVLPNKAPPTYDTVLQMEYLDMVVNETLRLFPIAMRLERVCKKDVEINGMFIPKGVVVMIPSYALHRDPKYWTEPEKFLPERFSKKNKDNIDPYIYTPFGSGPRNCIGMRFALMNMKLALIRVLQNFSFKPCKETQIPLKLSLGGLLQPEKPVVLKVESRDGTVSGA

[2] = Fraction unbound in mouse plasma; assay type: in vitro ADME

T1 sequence (P43088 whole entry): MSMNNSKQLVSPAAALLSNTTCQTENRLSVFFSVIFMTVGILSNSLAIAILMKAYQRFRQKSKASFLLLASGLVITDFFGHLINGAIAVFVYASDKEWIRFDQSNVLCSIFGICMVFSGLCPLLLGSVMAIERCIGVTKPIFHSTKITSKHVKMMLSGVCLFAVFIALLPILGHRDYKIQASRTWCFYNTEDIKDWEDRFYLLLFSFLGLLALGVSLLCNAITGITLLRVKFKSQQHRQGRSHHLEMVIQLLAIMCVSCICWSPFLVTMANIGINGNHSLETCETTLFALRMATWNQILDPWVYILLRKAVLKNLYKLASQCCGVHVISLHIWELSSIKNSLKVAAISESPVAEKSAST

| SMILES | inhibition at 10 µM (Prostaglandin F receptor; 10 µM, duplicates) [%] | inhibition at 10 µM (Estrogen receptor alpha; 10 µM, duplicates) [%] | inhibition at 10 µM (Histamine H2 receptor; 10 µM, duplicates) [%] | inhibition at 10 µM (5HT3; 10 µM, duplicates) [%] | inhibition at 10 µM (5HT2B; 10 µM, duplicates) [%] | inhibition at 10 µM [1] [%] | inhibition at 10 µM (Dopamine D2 receptor; 10 µM, duplicates) [%] | inhibition at 10 µM (PPAR gamma; 10 µM, duplicates) [%] | inhibition at 10 µM (Androgen receptor; 10 µM, duplicates) [%] | CYP inh. (3A4) (CYP3A4) | inhibition at 10 µM (Prostaglandin F receptor) [%] | inhibition at 10 µM (Estrogen receptor alpha) [%] | inhibition at 10 µM (Histamine H2 receptor) [%] | inhibition at 10 µM (5HT3) [%] | inhibition at 10 µM (5HT2B) [%] | inhibition at 10 µM (Dopamine D2 receptor) [%] | inhibition at 10 µM (PPAR gamma) [%] | inhibition at 10 µM (Androgen receptor) [%] | fu (m), fraction unbound in mouse plasma [2] [%] |
| --- | --- | --- | --- | --- | --- | --- | --- | --- | --- | --- | --- | --- | --- | --- | --- | --- | --- | --- | --- |
| CN1C(=O)[C@H](CCCN)NC(=O)[C@H](CCCN)NCc2ccccc2Sc2ccccc2CNC(=O)[C@@H]1Cc1c[nH]c2ccccc12 [RO7036668] | 2 | 24 | 12 | 6 | 27 | -27 | 74 | -1 | 6 | 18 µM |  |  |  |  |  |  |  |  |  |
| CN1C(=O)[C@H](CCCCN)NC(=O)[C@H](CCCN)NCc2cccnc2Sc2cccc(-c3ccc(C(=O)O)cc3)c2CNC(=O)[C@@H]1Cc1c[nH]c2ccccc12 [zosurabalpin] |  |  |  |  |  | 15 |  |  |  | >50 (3A4) >50 (2C9) >50 (2D6) μM | 5 | 7 | -2 | 3 | -1 | 14 | -4 | -5 | 37 |
| CN1C(=O)[C@H](CCCCN)NC(=O)[C@H](CCCN)NCc2cccnc2Sc2c(Cl)ccc(Cl)c2CNC(=O)[C@@H]1Cc1c[nH]c2ccccc12 [RO7075573] |  |  |  |  |  | -29 |  |  |  | 16 µM | -4 | -3 | 11 | 8 | 1 | 28 | -16 | -4 | 17 |
| CN1C(=O)[C@H](CCCCN)NC(=O)[C@H](CCCN)NCc2cccnc2Sc2c(Cl)ccc(-c3ccc(C(=O)O)cc3)c2CNC(=O)[C@@H]1Cc1c[nH]c2ccccc12 [RO7202110] | -3 | -7 | 3 | 6 | 14 | -25 | 28 | -8 | 3 | >50 (3A4) >50 (2C9) >50 (2D6) μM |  |  |  |  |  |  |  |  | 10 |
